Laboratory results published in PMC6522510 (Nature Communications, 2019).
Like-named read-outs stand apart in the source and are kept apart here.

Columns and labels:
MV4-11 [1] = experiment: Secondary dose-response HTS, Cell Titer Glo; type: cell-based, human
ML2 = experiment: Secondary dose-response HTS, Cell Titer Glo; type: cell-based, human
CMK = experiment: Secondary dose-response HTS, Cell Titer Glo; type: cell-based, human; conditions: CMK; for average effective concentration, CMK: secondary high-throughput screen
MV4-11 [2] = experiment: cells; parameters: species or system AML cell lines (8); Secondary HTS, 10-point dose-response in triplicate, Cell Titer Glo viability, four-parameter fit EC50; conditions: Homo sapiens, MV4-11, 72 h, read-out: MV4-11
CHRF288-11 = experiment: Secondary dose-response HTS, Cell Titer Glo; type: cell-based, human; conditions: secondary high-throughput screen; CHRF288-11
MOLM-13 = experiment: Secondary dose-response HTS, Cell Titer Glo; type: cell-based, human; conditions: Homo sapiens; secondary high-throughput screen; MOLM-13; read-out: average effective concentration, MOLM-13
M07e = experiment: cells; parameters: species or system AML cell lines (8); Secondary HTS, 10-point dose-response in triplicate, Cell Titer Glo viability, four-parameter fit EC50; conditions: M-07e, 72 h, read-out: M07e
[3] = secondary high-throughput screen, MV4-11

Work on `COc1ccc(C[C@H](NC(=O)[C@H](C)NC(=O)CN2CCOCC2)C(=O)N[C@@H](Cc2ccccc2)C(=O)C2(C)CO2)cc1` (stereo in doubt) [ONX-0914, reference compound] yielded an EC50 (MV4-11 [1]; secondary HTS, 72 h, average of triplicate, read-out: EC50 MV4-11) of 50 nM and an EC50 (ML2; secondary HTS, 72 h, average of triplicate, read-out: EC50 ML2) of 40 nM.
`CNC(=O)c1ccccc1Sc1ccc2c(/C=C/c3ccccn3)n[nH]c2c1` [AXITINIB] gave an EC50 (MV4-11 [1]; Homo sapiens, secondary high-throughput screen, MV4-11, read-out: average effective concentration, MV4-11) of 1100 nM.
In the case of `Cn1cccc1/C=C1\C(=O)NC(=O)c2ccccc21` [BYK 204165], the “average effective concentration, CMK” value (CMK) is reported as “Inactive”.
Work on `COc1ccc(-c2nc(N3CCOCC3)c3sc(CN(C)c4ncc(C(=O)NO)cn4)cc3n2)cn1` [CUDC-907] yielded an EC50 (MV4-11 [2]) of 0.21 nM.
For `C[C@@H]1NC(=O)[C@H]2CCCN2C(=O)[C@H](CCCCCC(=O)[C@@H]2CO2)NC(=O)[C@@H](C)NC1=O` [HC TOXIN], the “average effective concentration, MV4-11” value (MV4-11 [1]; [3]) was “Inactive” and the “average effective concentration, CMK” value (CMK) was “Inactive”.
`CCNC(=O)C[C@@H]1N=C(c2ccc(Cl)cc2)c2cc(OC)ccc2-n2c(C)nnc21` [I-BET-762] was tested, and the “average effective concentration, CMK” value (CMK) was “Inactive” and the “average effective concentration, CHRF288-11” value (CHRF288-11) was “Inactive”.
In the case of `CCN1CCN(CC(=O)Nc2ccc(-c3cccc4c(=O)cc(N5CCOCC5)oc34)c3sc4ccccc4c23)CC1` [KU-0060648], the “average effective concentration, MV4-11” value (MV4-11 [1]; [3]) is reported as “Inactive”.
Work on `CO[C@@H]1[C@H](N(C)C(=O)c2ccccc2)C[C@H]2O[C@]1(C)n1c3ccccc3c3c4c(c5c6ccccc6n2c5c31)C(=O)NC4` [MIDOSTAURIN] yielded an EC50 (MOLM-13) of 65 nM and an EC50 (ML2; Homo sapiens, secondary high-throughput screen, ML-2, read-out: average effective concentration, ML-2) of 17 nM.
For `CO[C@H](C(=O)[C@@H](O)[C@@H](C)O)[C@@H]1Cc2cc3cc(O[C@H]4C[C@@H](O[C@H]5C[C@@H](O)[C@H](O)[C@@H](C)O5)[C@H](O)[C@@H](C)O4)c(C)c(O)c3c(O)c2C(=O)[C@H]1O[C@H]1C[C@@H](O[C@H]2C[C@@H](O[C@H]3C[C@](C)(O)[C@H](O)[C@@H](C)O3)[C@@H](O)[C@@H](C)O2)[C@H](O)[C@@H](C)O1` [MITHRAMYCIN A], the EC50 (M07e) was greater than 10000 nM.
In the case of `O=C1c2c(O)ccc(O)c2C(=O)c2c(NCCNCCO)ccc(NCCNCCO)c21` [MITOXANTHRONE], the EC50 (ML2; secondary high-throughput screen, ML-2, read-out: average effective concentration, ML-2) is reported as 240 nM.
`C=CCn1c(=O)c2cnc(Nc3ccc(N4CCN(C)CC4)cc3)nc2n1-c1cccc(C(C)(C)O)n1` [MK-1775] gave an EC50 (M07e) greater than 10000 nM.
For `CC(C)C(=O)SCCCCCCC(=O)Nc1nc(-c2ccccc2)cs1` [NCH 51], the “average effective concentration, MV4-11” value (MV4-11 [1]; [3]) was “Inactive” and the “average effective concentration, CMK” value (CMK) was “Inactive”.
For `CNC(=O)c1ccccc1Nc1nc(Nc2ccc(N3CCOCC3)cc2OC)ncc1Cl` [NVP-TAE226], the “average effective concentration, MV4-11” value (MV4-11 [1]; [3]) was “Inactive”.
In the case of `COC[C@H](NC(=O)c1cnc(C)s1)C(=O)N[C@@H](COC)C(=O)N[C@@H](Cc1ccccc1)C(=O)[C@@]1(C)CO1` [Oprozomib], the EC50 (M07e) is reported as 6.3 nM and the EC50 (MV4-11 [2]) is reported as 8.6 nM.
In the case of `Cc1ccc(NC(=O)CCCCCC(=O)Nc2ccccc2N)cc1` [PIMELIC DIPHENYLAMIDE 106], the “average effective concentration, MV4-11” value (MV4-11 [1]; [3]) is reported as “Inactive” and the “average effective concentration, CMK” value (CMK) is reported as “Inactive”.
In the case of `CS(=O)(=O)N1CCN(Cc2cc3nc(-c4cccc5[nH]ncc45)nc(N4CCOCC4)c3s2)CC1` [Pictilisib, reference compound], the EC50 (CMK; Homo sapiens, read-out: average effective concentration, CMK) is reported as 2300 nM.
